The results in this text go back to US4996225A, “Tri-phenyl alkane derivatives and their oestrogenic, anti-oestrogenic and progestanic uses” (Farmos Group Ltd., priority 1982, dated 1991).

SMILES strings stand for the structures. “Also recorded” adds a separate entry of the source.

In assay [1] the test system is estradiol induced weight increase in immature mouse uterus. The experiment in a line: antiestrogenic effect, inhibition of oestrogen-induced uterus weight increase in immature mice. Format: in vivo. To be noted: for anti-estrogenic effect (in words): immature mouse uterus; for effect with estradiol (in words) / reduction in the weights of mice uterus, with estradiol: with estradiol 0.05 mg/kg. On the procedure:
(§1) The oestrogen-antiestrogen (progesterone) effect of the new compounds in vivo was determined as follows: (1) The oestrogenic properties were determined by administering the new compounds, suspended in sesame oil, subcutaneously to 21 days old immature mice on three consecutive days. The mice were killed on the fourth day and the uterus was weighed. […] The weight correlates with the oestrogenic effect of the compound tested. […] In this case, the ability of the molecules to inhibit oestrogen-induced uterus weight increase was also investigated.

Assay [2] relates to MCF-7 cell line (human mammary adenocarcinoma). The experiment in a line: anti-tumour effect in vitro, growth of MCF-7 cell line (bioluminescence assay, intracellular ATP). It counts as cell-based. To be noted: read-out: Antitumour effect against MCF-7 cell line (IC50 = concentration of compound where 50% inhibition of cell growth could be seen).
Method: The anti-tumour effect was studied in vitro as follows:
The amount of living cells after 4 h, 24 h and 48 h incubations were determined by bioluminescence assay (intracellular ATP determination).
inhibition of cell growth could be seen.
Assay [3] concerns immature mouse uterus. The experiment in a line: oestrogenic effect, uterus weight of immature mice. Particulars: for estrogenic effect: less than that of estradiol 0.05 mg/kg: 5 mg/kg; for estrogenic effect (in words): immature mice, s.c., three days. It counts as in vivo. On the procedure: as §1
For another assay, the target named is T1, oestrogen receptors (Rattus norvegicus, UniProt P06211).
T1 construct: rat uterus cytosol preparation; from tissue; host or cells: rat uterus cytosol
T1 sequence (P06211 1-600): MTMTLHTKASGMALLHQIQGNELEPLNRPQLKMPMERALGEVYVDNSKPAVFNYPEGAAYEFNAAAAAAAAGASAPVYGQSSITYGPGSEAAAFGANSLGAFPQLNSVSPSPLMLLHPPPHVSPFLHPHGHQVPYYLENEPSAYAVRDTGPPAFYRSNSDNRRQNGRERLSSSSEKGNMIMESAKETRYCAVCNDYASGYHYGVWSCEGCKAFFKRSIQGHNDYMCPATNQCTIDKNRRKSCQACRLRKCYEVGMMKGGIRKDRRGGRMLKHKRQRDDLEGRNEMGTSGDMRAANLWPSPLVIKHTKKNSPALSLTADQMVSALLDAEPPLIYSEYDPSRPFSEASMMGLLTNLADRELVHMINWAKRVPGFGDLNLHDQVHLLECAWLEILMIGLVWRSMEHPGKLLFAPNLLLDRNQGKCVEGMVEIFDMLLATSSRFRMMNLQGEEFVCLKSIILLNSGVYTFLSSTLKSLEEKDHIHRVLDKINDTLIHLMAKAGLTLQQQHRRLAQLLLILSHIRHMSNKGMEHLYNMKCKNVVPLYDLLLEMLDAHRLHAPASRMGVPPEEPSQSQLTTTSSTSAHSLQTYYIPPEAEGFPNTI
The experiment in a line: affinity for oestrogen receptors, competition with 3H-17-β-estradiol in rat uterus cytosol (dextran-charcoal method). It counts as binding. To be noted: read-out: Estrogen receptor affinity (concentration of compound where 50% competition (inhibition) with 3H-estradiol occurred).

Assay [4] deals with immature mouse uterus. The experiment in a line: progestanic effect, uterus weight of immature mice (alone or with medroxyprogesterone acetate). It counts as in vivo. The arrangement: reduction in the weight of a mouse uterus, given alone / reduction in the weight of uterus with medroxyprogesterone / reduction in the weights of mice uterus, given alone: concentration or dose not given beside the values. Particulars: for reduction in the weights of mice uterus, given alone: Table 2A; for progestanic effect (in words): immature mouse uterus; for effect with medroxyprogesterone (in words) / reduction in the weights of mice uterus with medroxyprogesterone, compared to control: with medroxyprogesterone 0.06 mg/kg.

Assay [5] relates to DMBA-induced rat mammary adenocarcinomas. The experiment in a line: antitumour effect in vivo against DMBA-induced rat mammary adenocarcinoma. Particulars: for growth / size of tumour (width×height): 30 mg/kg. On the procedure: (§2) The anti-tumour effect was investigated in vivo against DMBA-induced rat mammary adenocarcinomas, transplantable mammary and ovarial adenocarcinoma and transplantable prostatic squamous cell carcinoma by the following methods:
Mammary adenocarcinomas were induced by DMBA in 35-40 days old female rats. […] Tumour size and numbers of tumours were evaluated twice a week. Tumour sizes in the control group, treated with solvent, were compared with the test groups.
The size refers to the width×height of the tumour. The growth rate is a difference between sizes compared with that of the first day of the treatment.

The subject of the next assay is rat ovarial carcinoma. The experiment in a line: antitumour effect against transplantable rat ovarial carcinoma. Format: in vivo. To be noted: 5 mg/kg, ten days' treatment.
Source text: as §2
(§3) Transplantable rat mammary adenocarcinoma was developed by inoculating pieces of DMBA-induced carcinomas subcutaneously to healthy mature female rats. A tumour which expressed malignant growth was selected for further transplantations. Other transplantable tumours were inoculated subcutaneously as washed cell suspension (10^7 cells/animal).

Another assay concerns mouse uterus sarcoma. The experiment in a line: antitumour effect against transplantable mouse uterus sarcoma. Format: in vivo. To be noted: 100 mg/kg, two weeks' treatment.
Source text: The activity of the molecules against other tumours was studied by administering the molecules by stomach tube to animals implanted with transplantable uterus sarcoma (mice) or prostatic adenocarcinoma (rats).
Daily or twice weekly administration schedules were employed. NMRI mice (about 20 g, females) and Fischer 344 rats (about 200 g, males) were used. Estramustine phosphate served as positive control.
as §3

Method for oestrogen receptors: The affinity of the new compounds for oestrogen receptors was determined by the ability to compete with ^3 H-labelled 17-β-estradiol in rat uterus cytosol preparation. After incubation, receptor-bound and receptor-unbound ligands were separated by a known dextrancharcoal method.

As to `Oc1ccc([C@@]2(c3ccccc3)OCCC[C@@H]2c2ccccc2)cc1` (relative stereo) [Compound 5, 2,3-diphenyl-2-(4-hydroxyphenyl)tetrahydropyran], in assay [1], the “anti-estrogenic effect (in words)” value is on record as “no antiestrogenic effect” and the “effect with estradiol (in words)” value is recorded as “no synergism”. Also, the IC50 in assay [2] was in the range of 1000 to 5000 nM. In the assay on immature mouse uterus [3], the “estrogenic effect: less than that of estradiol 0.05 mg/kg” value (shortened to “estrogenic effect: less than that”) was 41% and the “estrogenic effect (in words)” value is given as “could be seen only at the higher concentrations investigated”. Also, the “estrogenic effect with increased doses (in words)” value with immature mouse uterus [3] (increased doses, effect overcame that of medroxyprogesterone) is given as “a weak estrogenic effect could be seen; also recorded: A slight increase in the weight of uterus”. Besides, on oestrogen receptors, the IC50 is 100 to 1000 nM. For the same compound, in the assay with immature mouse uterus [4] (0.05 mg/kg), the “decrease of weight of mouse uterus” value was 34%. Also, in the assay on immature mouse uterus [4] (given alone), the “effect given alone: progestanic (in words)” value was “progestanic” and the “reduction in the weights of mice uterus, given alone” value was 34%. Moreover, in the assay with immature mouse uterus [4], the “progestanic effect (in words)” value is “due to its progestanic effect”; the “effect with medroxyprogesterone (in words)” value is given as “no inhibition”; the “reduction in the weights of mice uterus with medroxyprogesterone, compared to control” value (“reduction in the weights … to control” for short) amounted to 34%. In addition, the “interaction with medroxyprogesterone (in words)” value (shortened to “interaction”) in the assay with immature mouse uterus [4] (with medroxyprogesterone) is on record as “No inhibition of medroxyprogesterone”.

As to `CN(C)CCOc1ccc(/C(=C(/CCO)c2ccccc2)c2ccccc2)cc1` [Compound 4, 1,2-diphenyl-1-[4-[2-(N,N-dimethylamino)-ethoxy]-phenyl]-1-buten-4-ol], the “inhibition of estradiol induced effect in mouse uterus” value (“inhibition” for short) in assay [1] (0.5 mg/kg) stood at 12%. Moreover, the “effect given alone: antiestrogenic (in words)” value in assay [1] (given alone) is reported as “anti-”. In assay [1], the “anti-estrogenic effect (in words)” value is given as “possessed anti-estrogenic effects”; the “effect with estradiol (in words)” value is recorded as “anti-”; the “reduction in the weights of mice uterus, with estradiol” value (shortened to “reduction … with estradiol”) worked out at 21%. Moreover, the IC50 in assay [2] lay within 1000 to 5000 nM. Besides, the “estrogenic effect of their own (in words)” value in the assay on immature mouse uterus [3] (up to 5 mg/kg) was “no estrogenic effect of their own”. The “growth rate of tumours compared to controls” value in assay [5] (10 mg/kg) is listed as “one eighth”. For the same compound, at oestrogen receptors, the IC50 lay within 1000 to 10000 nM. In the assay on immature mouse uterus [4] (given alone), the “effect given alone: progestanic (in words)” value is on record as “progestanic”; the “reduction in the weight of a mouse uterus, given alone” value was determined as 38%; the “reduction in the weights of mice uterus, given alone” value worked out at 31%. In the assay on immature mouse uterus [4] (with medroxyprogesterone), the “interaction” value was “slight inhibition” and the “reduction in the weight of uterus with medroxyprogesterone” value is 17%. In the assay with immature mouse uterus [4], the “effect with medroxyprogesterone (in words)” value was “weak” and the “reduction in the weights … to control” value stood at 17%.

In the case of `CN(C)CCOc1ccc(/C(=C(/CCCl)c2ccccc2)c2ccccc2)cc1` [Compound 7, 4-chloro-1,2-diphenyl-1-[4-[2-(N,N-dimethylamino)ethoxy]phenyl]-1-butene], in the assay with rat ovarial carcinoma, the “size of rat ovarial carcinoma smaller compared with control” value amounted to 20%. Also, in assay [1] (0.5 mg/kg), the “inhibition” value turned out to be 27%. In addition, in assay [1], the “anti-estrogenic effect (in words)” value was “possessed anti-estrogenic effects; also recorded: possessing antiestrogenic and estrogenic properties”. Further, the “effect with estradiol (in words)” value in assay [1] was “anti-”. Further, the “reduction … with estradiol” value in assay [1] was 27%. The IC50 in assay [2] lay within 1000 to 5000 nM. Moreover, in the assay on immature mouse uterus [3], the “estrogenic effect: less than that” value is “about 50%”. For the same compound, the “effect given alone: estrogenic (in words)” value with immature mouse uterus [3] (given alone) is given as “estrogenic”. Moreover, in the assay with immature mouse uterus [3], the “estrogenic effect (in words)” value is “could be seen only at the higher concentrations investigated; also recorded: possessing antiestrogenic and estrogenic properties”. The growth in assay [5] (day 1 of treatment) was 0; in assay [5] (day 3 of treatment), 0.1551; in assay [5] (day 7 of treatment), -0.2118; in assay [5] (day 9 of treatment), -0.4714; in assay [5] (day 14 of treatment), -0.5392; in assay [5] (day 17 of treatment), -0.5752. Besides, the growth was -0.5851 in assay [5] (day 21 of treatment), -0.5682 in assay [5] (day 25 of treatment), -0.5640 in assay [5] (day 28 of treatment) and -0.5379 in assay [5] (day 35 of treatment). The “size of tumour (width×height)” value in assay [5] (day 1 of treatment) stood at 1.5188; in assay [5] (day 3 of treatment), 1.6739; in assay [5] (day 7 of treatment), 1.3070; in assay [5] (day 9 of treatment) it was 1.0474; in assay [5] (day 14 of treatment) it was 0.1179; in assay [5] (day 17 of treatment), 0.0820. Also, the “size of tumour (width×height)” value in assay [5] (day 21 of treatment) is listed as 0.0721; in assay [5] (day 25 of treatment) it was 0.0891; in assay [5] (day 28 of treatment) it was 0.09316; in assay [5] (day 35 of treatment), 0.1193. Moreover, in assay [5] (highest dose used (30 mg/kg)), the “growth of the tumours (in words)” value is listed as “the growth of the tumours was found to stop”. In addition, the “dose range at which antitumour effect was found” value in assay [5] (rat, in vivo) fell in the range of 1.0 to 30 mg/kg. In addition, the “size of uterus sarcoma smaller than that of control” value in the assay on mouse uterus sarcoma was 30%. In addition, the “effect given alone: progestanic (in words)” value with immature mouse uterus [4] (given alone) is on record as “progestanic”. In the assay with immature mouse uterus [4], the “progestanic effect (in words)” value is listed as “found to be progestanic”. Besides, the “interaction” value in the assay on immature mouse uterus [4] (with medroxyprogesterone) was “slight inhibition of medroxyprogesterone at the lowest dose studied”. For the same compound, the “effect with medroxyprogesterone (in words)” value in the assay on immature mouse uterus [4] is “weak”. The “reduction in the weights … to control” value with immature mouse uterus [4] worked out at 14%.

For `CN(C)CCOc1ccc(/C(=C(/CCBr)c2ccccc2)c2ccccc2)cc1` [Compound 13, 4-bromo-1,2-diphenyl-1-[4-[2-(N,N-dimethylamino)ethoxy]phenyl]-1-butene], the “inhibition” value in assay [1] (5 mg/kg) came to 25%. In addition, in assay [1], the “anti-estrogenic effect (in words)” value is reported as “possessed anti-estrogenic effects”; the “effect with estradiol (in words)” value is on record as “anti-”; the “reduction … with estradiol” value is reported as 25%. In assay [2], the IC50 was in the range of 1000 to 5000 nM. Further, in the assay on immature mouse uterus [3], the “estrogenic effect: less than that” value is recorded as “about 50%” and the “estrogenic effect (in words)” value is recorded as “could be seen only at the higher concentrations investigated”. Also, in the assay on immature mouse uterus [3] (given alone), the “effect given alone: estrogenic (in words)” value was “estrogenic” and the “increase in the weights of mice uterus, given alone” value is given as 50%. In assay [5] (compared with compound 7), the “antitumour effect against DMBA-induced mammary cancer (in words)” value is reported as “Antitumour effect less than that of compound 7”. Moreover, at oestrogen receptors, the IC50 lay in the range of 100 to 1000 nM. In the assay on immature mouse uterus [4], the “effect with medroxyprogesterone (in words)” value is given as “weak” and the “reduction in the weights … to control” value came out at 14%.
